Measured values as given in US20260015574A1, “METHODS FOR SHORTENING LAG PHASE DURATION IN MICROORGANISMS” (YEDA RESEARCH AND DEVELOPMENT CO. LTD., priority 2022, published 2026).

How the values were obtained:
[1] = tested on: Phaeobacter inhibens DSM 17395; assay: Growth / lag phase shortening assay of P. inhibens pure cultures with glucose; assay type: cell-based; conditions: for lag phase shortening effect (Δlag time) of panel compounds: 1 mM glucose and 2 μM of the respective compound
Experimental: ASW was adjusted to pH 8 using HCl. If not otherwise stated, the medium was further supplemented with a source of carbon (glucose, 1 mM), nitrogen (NH4Cl, 5 mM), and sulfur (Na2SO4, 33 mM), referred to as ASW+CNS. […] A 96-well Tecan Infinite M Plex plate reader was used for high-resolution monitoring of bacterial growth dynamics at 30° C. An ImageStreamX Flow Imager system (Amnis) was used to characterize bacterial populations during the lag phase (FIG. 6). The growth of bacteria in co-culture with algae was monitored by counting colony forming units (CFU) on ½ YTSS agar plates. The growth of algae was monitored with a CellStream flow cytometer (Merck, Darmstadt, Germany).
To test whether methylated compounds affect the growth of bacteria, the inventors cultivated bacterial pure cultures with glucose as main growth substrate and supplemented the medium with the well-studied methylated compound dimethylsulfoniopropionate (DMSP). DMSP that is naturally produced by microalgae and found in detectable levels in seawater, is known to be metabolized by various bacteria. […] To quantify the lag phase shortening effect, the inventors calculated the Δlag time, which is the time difference between the commence of exponential growth in control cultures compared to treated cultures (FIG. 5B).
To reflect the natural low bacterial abundance in the oligotrophic ocean with low microalgal productivity, the current bacterial growth experiments were routinely initiated with an optical density (OD) of 0.00001. Such low initial ODs challenge the detection of cell divisions that occur prior to reaching an OD of at least 0.001, which is the theoretical limit of detection. To determine the actual length of the lag phase, the inventors analyzed bacterial cultures using imagining flow cytometry.

[2] = tested on: P. inhibens Δbmt mutant; assay: Growth and lag phase shortening in Δbmt mutant; assay type: cell-based, Phaeobacter inhibens; conditions: minimal media, addition of 200 μM methionine
Experimental: (§1) For creation of P. inhibens knockout cells, ˜1,000 bp regions upstream and downstream of the gene of interest were amplified by PCR (Phusion High-Fidelity DNA polymerase, Thermo Scientific), using primers that added homologous regions to gentamycin or kanamycin resistance markers. The fragments were assembled and cloned into the TOPOII vector (Invitrogen) using restriction-free cloning (Peleg Y. & Unger T., 2014), generating a knockout (KO) plasmid. P. inhibens electrocompetent cells (300 μl) were transformed with 10 μg of the constructed KO plasmid by a pulse of 1.8 kV (Bio Rad). Cells were selected on ½YTSS agar plates containing 30 μg/ml gentamycin or 150 μg/ml kanamycin. Successful knockouts in single cell clones were verified by PCR and sanger sequencing.

[3] = tested on: P. inhibens; assay: Lag phase metabolomics with 13C-labeled DMSP; assay type: cell-based, Phaeobacter inhibens; conditions: 50 μM 13C-labeled DMSP, two hours, LC/MS
Experimental: DMSP was synthesized in which both S-methyl groups are ^13C-labeled, using the protocol of Wirth and Whitman (2018). Freshly initiated P. inhibens cultures (OD 0.01, ASW+CNS medium) were treated with 50 μM 13C-labeled DMSP and compared to reference cultures with non-labeled DMSP. Bacterial cells were harvested and extracted two hours after adding DMSP. The incorporation of the 13C label was analyzed by LC/MS (FIG. 12).
To further elucidate the fate of methyl groups, the inventors analyzed the transcriptome of DMSP-treated P. inhibens bacteria during the lag phase, and compared it to untreated control cultures. […] To further establish that DMSP methyl groups are assimilated via the methionine cycle, the inventors measured the methionine synthesis activity in protein crude extracts of stationary bacterial cells, using a biochemical assay followed by LC/MS analysis. […] Taken together, the inventors established that DMSP methyl groups are assimilated during the lag phase via the methionine cycle.

[4] = tested on: P. inhibens mttB1 KO mutant; assay: Lag phase shortening in mttB1 knockout mutant; assay type: cell-based, Phaeobacter inhibens
Experimental: as §1
The inventors further sought to better understand why methyl groups shorten the bacterial lag phase. The inventors list at least three cellular scenarios which could explain the effect that methylated compounds have on the lag phase: (1) methyl groups might be a limiting resource; (2) methyl groups might act as a signal that triggers a cellular cascade, which culminates in lag phase shortening; and (3) methylated compounds could accumulate intracellularly and function as osmoprotectants and antioxidants. […]

[5] = tested on: Bacillus subtilis strain 168; assay: Lag phase shortening in B. subtilis; assay type: cell-based
Experimental: The bacterial strain Phaeobacter inhibens DSM 17395 was purchased from the German collection of microorganisms and cell cultures (DSMZ, Braunschweig, Germany) and stored at −80° C. with 20% glycerol. Routine cultivation of P. inhibens was conducted at 30° C. in artificial seawater medium (ASW) based on Goyet and Poisson (1989). The ASW medium contained mineral salts (NaCl, 409.41 mM; Na2SO4, 28.22 mM; KCl, 9.08 mM; KBr, 0.82 mM; NaF, 0.07 mM; Na2CO3, 0.20 mM; NaHCO3, 2 mM; MgCl2, 50.66 mM; SrCl2, 0.09 mM), L1 vitamins (thiamine HCl, 100 μg/L; biotin, 0.5 μg/L; vitamin B12, […]), L1 trace elements (Na2EDTA·2H2O, 4.36 mg/L; FeCl3·6H2O, 3.15 mg/L; MnCl2·4H2O, 178.1 μg/L; ZnSO4·7H2O, 23.0 μg/L; CoCl2·6H2O, 11.9 μg/L; CuSO4·5H2O, 2.5 μg/L; Na2MoO4·2H2O, 19.9 μg/L; H2SeO3, 1.29 μg/L; NiSO4·6H2O, 2.63 μg/L; Na3 VO4, 1.84 μg/L; K2CrO4, 1.94 μg/L), and L1 nutrients (NaNO3, 882 μM; NaH2PO4, 36.22 μM). ASW was adjusted to pH 8 using HCl. If not otherwise stated, the medium was further supplemented with a source of carbon (glucose, 1 mM), nitrogen (NH4Cl, 5 mM), and sulfur (Na2SO4, 33 mM), referred to as ASW+CNS. Methylated effector compounds (e.g., donors) were administered at 1 or 2 μM in routine assays, or in higher concentrations as stated. The bacterium Bacillus subtilis strain 168 was cultivated in M9 Medium (Na2HPO4, 6 g/L; KH2PO4, 3 g/L; NaCl, 0.5 g/L; NH4CL, 1 g/L; CaCl2), 100 µM; MgSO4, 1 mM; Thiamine, 5 mg/L; EDTA, 50 mg/L; FcCl3, 4.98 mg/L; ZnCl2, 0.84 mg/L; CuCl2·2H2O, 0.13 mg/L; CoCl2·6H2O, 0.1 mg/L; H3BO3, 0.1 mg/L; MnCl2·4H2O, 0.016 mg/L; pH 7.1) with 20 mM glucose. Other bacterial strains tested for lag phase shortening were isolated from the marine environment (Despotović et al., 2021), and cultivated in ASW+CNS. A 96-well Tecan Infinite M Plex plate reader was used for high-resolution monitoring of bacterial growth dynamics at 30° C. […] The growth of bacteria in co-culture with algae was monitored by counting colony forming units (CFU) on ½ YTSS agar plates. The growth of algae was monitored with a CellStream flow cytometer (Merck, Darmstadt, Germany). […]

[6] = tested on: marine bacterium Vibrio sp.; assay: Lag phase shortening in Vibrio sp.; assay type: cell-based; conditions: 2 μM compound
Experimental: (§2) The bacterial strain Phaeobacter inhibens DSM 17395 was purchased from the German collection of microorganisms and cell cultures (DSMZ, Braunschweig, Germany) and stored at −80° C. with 20% glycerol. Routine cultivation of P. inhibens was conducted at 30° C. in artificial seawater medium (ASW) based on Goyet and Poisson (1989). The ASW medium contained mineral salts (NaCl, 409.41 mM; Na2SO4, 28.22 mM; KCl, 9.08 mM; KBr, 0.82 mM; NaF, 0.07 mM; Na2CO3, 0.20 mM; NaHCO3, 2 mM; MgCl2, 50.66 mM; SrCl2, 0.09 mM), L1 vitamins (thiamine HCl, 100 μg/L; biotin, 0.5 μg/L; vitamin B12, […]), L1 trace elements (Na2EDTA·2H2O, 4.36 mg/L; FeCl3·6H2O, 3.15 mg/L; MnCl2·4H2O, 178.1 μg/L; ZnSO4·7H2O, 23.0 μg/L; CoCl2·6H2O, 11.9 μg/L; CuSO4·5H2O, 2.5 μg/L; Na2MoO4·2H2O, 19.9 μg/L; H2SeO3, 1.29 μg/L; NiSO4·6H2O, 2.63 μg/L; Na3 VO4, 1.84 μg/L; K2CrO4, 1.94 μg/L), and L1 nutrients (NaNO3, 882 μM; NaH2PO4, 36.22 μM). ASW was adjusted to pH 8 using HCl. […] A 96-well Tecan Infinite M Plex plate reader was used for high-resolution monitoring of bacterial growth dynamics at 30° C. […] The growth of bacteria in co-culture with algae was monitored by counting colony forming units (CFU) on ½ YTSS agar plates. The growth of algae was monitored with a CellStream flow cytometer (Merck, Darmstadt, Germany). […]

[7] = tested on: E. coli; assay: Lag phase shortening in E. coli; assay type: cell-based, Escherichia coli
Description: (§3) To explore whether lag phase shortening is a general mechanism among bacteria, the inventors tested the effect of methylated compounds in bacteria with different lifestyles. […] Since methylated compounds are a hallmark of photosynthesizing organisms, the inventors next tested a variety of bacteria that are plant-associated. […] Finally, to establish the prevalence of lag phase shortening among bacteria, the inventors tested the model bacterium E. coli. This bacterium is not commonly found associated with photosynthesizing organisms, and thus, is unlikely to respond to algal metabolites. […] The synchrony between specific compounds and different groups of bacteria may reflect the natural context […].

[8] = tested on: Various marine bacteria; assay: Lag phase shortening in various marine bacteria; assay type: cell-based; conditions: minute amounts of compound
Experimental: as §2

[9] = tested on: bacteria that are plant-associated; assay: Lag phase shortening in plant-associated bacteria; assay type: cell-based
Description: as §3

[10] = tested on: opportunistic pathogens, found in both plants and humans; assay: Lag phase shortening in opportunistic pathogens found in plants and humans; assay type: cell-based
Description: as §3

SMILES: C[N+]1(C)CCC[C@H]1C(=O)[O-] [stachydrine]
- lag phase shortening effect (Δlag time) of panel compounds [1]: most pronounced

SMILES: COc1cc(Cc2cnc(N)nc2N)cc(OC)c1OC [Trimethoprim, reference compound]
- growth of P. inhibens in the presence of the THF inhibitor [1]: cannot grow unless the culture is supplemented with nucleotides

SMILES: C[N+](C)(C)CC(O)CC(=O)[O-] (centres unmarked) [carnitine]
- lag phase shortening effect (Δlag time) of panel compounds [1]: most pronounced

SMILES: CSCC[C@H](N)C(=O)O [methionine]
- lag phase shortening effect (Δlag time) of panel compounds [1]: prolonged the lag phase
- growth of the Δbmt mutant [2]: fully recovered

SMILES: C[S+](C)CCC(O)CC(=O)[O-] (centres unmarked) [gonyol]
- lag phase shortening effect (Δlag time) of panel compounds [1]: most pronounced

SMILES: [13CH3][S+]([13CH3])CCC(=O)[O-] [13C-labeled DMSP]
- metabolic fate of DMSP methyl groups (13C label incorporation) [3]: converted into SAM

SMILES: C[S+](C)CC(=O)[O-] [DMSA, dimethylsulfonioacetate]
- lag phase shortening effect (Δlag time) of panel compounds [1]: most pronounced

SMILES: C[N+](C)(C)CC(=O)O [betaine, glycine betaine]
- lag phase shortening effect (Δlag time) of panel compounds [1]: most pronounced
- lag phase shortening [4]: does not shorten the lag phase
- lag phase shortening ([5]; 2 μM compound): induction of the lag phase shortening
- Δlag time ([5]; FIG. 17B): 7 h
- lag phase shortening [6]: induction of the lag phase shortening
- lag phase shortening ([7]; treatment with algal metabolites): did not shorten the lag phase
- lag phase shortening [8]: marked lag phase shortening
- lag phase shortening [9]: significant shortening of the lag phase

SMILES: C[S+](C)CC[C@H](N)C(=O)O [SMM, S-methyl-L-methionine]
- Δlag time ([7]; E. coli BL21, 2 μM SMM (FIG. 17C)): Δlag time of one hour
- lag phase shortening ([7]; modified strains BL21(DE3) and DH5α): this effect was observed
- lag phase shortening ([7]; wild-type strain K12): only showed this effect upon addition of greater SMM concentrations
- lag phase shortening [10]: shorten their lag phase
